What was measured:
Mouse macrophages = test: Proinflammatory cytokine transcripts after Pg-LPS challenge; assay type: cell-based
Protocol: (§1) L-Norleucine as well as other metabolites modulate proinflammatory cytokines in macrophages and HGF. L-Norleucine was obtained commercially (Sigma) and dissolved in DMEM. Mouse macrophages and human HGF were cultured with DMEM supplemented with different concentrations of L-Norleucine and subsequently challenged with Pg-LPS at 100 ng/ml.

[1] = test system: human gingival fibroblasts (HGF); test: Proinflammatory cytokines after Pg-LPS challenge (qRT-PCR, ELISA, antibody array); assay type: cell-based; conditions: for proinflammatory cytokines (transcripts of IL-1β, 6 and 8): at 0.1 μg after Pg-LPS challenge
Protocol: (§2) Sg metabolites modulate proinflammatory cytokines in human periodontal associated cells in vitro. Sg were cultured in a total of 40 ml DMEM for 24 hrs. After 200 μl of Sg suspension reached 0.2 at OD600 value in a 96-well plate, the Sg metabolites were collected by centrifugation at 3000 g for 10 min and then filtered through a 0.22 μm filter. No toxicity of Sg metabolites was detected using an MTT assay on primary human bone marrow mesenchymal stromal cells (BMSCs) and primary human gingival fibroblasts (HGF) (data no shown). The modulation of Sg metabolites on inflammatory cytokines was tested using human monocyte-derived macrophages (MDM) and HGF. The MDM were generated by inducing a human macrophage cell line (THP-1) using PMA at 10 ng/ml. The MDM at 2×10^6 cells/per well and HGF at 2×10^4 cells/per well were cultured in 24-well plates using DMEM with 10% FBS and 1% PS. The Sg metabolites at 1 and 5% v/v were added and incubated for 24 hrs before challenging with Pg-LPS at 100 ng/ml.
as §1
(§3) Human monocyte-derived macrophages (MDM) using THP-1 cells and HGF were cultured in a 24-well plate with DMEM and challenged with Pg-LPS at 100 ng/ml.
(§4) In addition, freshly isolated epidydimal white adipose tissues (eWAT) from mice on a HFD for 16 weeks were minced and cultured in 24-well plates and treated with HCA at 0.5 and 1.0 μM in DMEM/F-12 containing 10% cosmic calf serum (CCS) and 1% penicillin-streptomycin (basal growth media, BGM). […] These preliminary data are strong evidence that Sg metabolites have the potential to modulate host inflammatory responses and attenuate inflammation.
HCA promotes proliferation of health related bacteria and inhibits proliferation and attachment of periodontopathogenic bacteria. Promoting the growth of health-related commensal bacteria while inhibiting proliferation and attachment of pathogenic bacteria may be effective at preventing or treating periodontal inflammation. To determine if HCA has an effect on the growth properties of commensal bacteria and periodontopathogens, HCA at different concentrations was added to aerobic culture of S. mitis and S. oralis and anaerobic culture of T. denticola as described in our published manuscript (see detail in Shu et al, Journal of Periodontology, 2022). FIGS. 18A-C summarize the functions of HCA on the proliferation of specific commensal and pathogenic bacteria. […] Furthermore, the function of HCA on P. gingivalis attachment, a key parameter of adhesion and biofilm formation by periodontopathogenic bacteria, was investigated. […] Attachment measurements of P. gingivalis were performed based on our published studies (see detail in Shu et al, Journal of Periodontology, 2022). […] To test the biocompatibility and anti-inflammatory properties of HCA, human monocyte-derived macrophages (MDM) and gingival fibroblasts (HGF) were prepared as described in our previous studies. The cells were then treated with HCA from 0.1 to 50 μM. No toxicity was observed after treatment with different concentrations of HCA in either cell type using an MTT assay (FIGS. 19A and B, left column). The anti-inflammatory function of HCA on MDM and HGF after exposure to P. gingivalis lipopolysaccharide (PG-LPS) was investigated. […] HCA mitigates inflammation and affects the composition of microbiomes in vivo. Recent studies investigated whether HCA modulates periodontal inflammation using a mouse model. To induce periodontal inflammation, a total of 1 μl Pg-LPS at 10 μg/μl was directly injected twice a week into the interdental region between maxillary molars of C57BL/6J mice using a Hamilton1700 series syringe according to our previously published studies. […]

HGF = test: Anti-inflammatory miR expression after Pg-LPS challenge; assay type: cell-based, human; conditions: 24 hours after Pg-LPS challenge
Protocol: (§5) FIGS. 11A-11B. Sg metabolites upregulate anti-inflammatory miRs in human macrophages and HGF. A-B: Relative transcript changes of miR-200c, 146a, and 21 in HGF (A) and human MDM (B) treated with AICAR, MA, HCA, and HPLA 24 hours after Pg-LPS challenge; performed in duplicate.

Human MDM = test: as above; assay type: cell-based; conditions: 24 hours after Pg-LPS challenge
Protocol: as §5
Human MDM was cultured in a 24-well plate and treated with HCA at different concentrations and Pg-LPS at 100 ng/mi for 24 hrs. […] (All data are presented as means±SEM. *: p<0.05 vs untreated, ANOVA).

[2] = test system: human monocyte-derived macrophages (MDM) using THP-1 cells; test: Proinflammatory cytokines after Pg-LPS challenge (qRT-PCR, ELISA); assay type: cell-based; conditions: at 0.1 μg after Pg-LPS challenge
Protocol: as §2, §3, §4
HCA promotes proliferation of health related bacteria and inhibits proliferation and attachment of periodontopathogenic bacteria. Promoting the growth of health-related commensal bacteria while inhibiting proliferation and attachment of pathogenic bacteria may be effective at preventing or treating periodontal inflammation. To determine if HCA has an effect on the growth properties of commensal bacteria and periodontopathogens, HCA at different concentrations was added to aerobic culture of S. mitis and S. oralis and anaerobic culture of T. denticola as described in our published manuscript (see detail in Shu et al, Journal of Periodontology, 2022). FIGS. 18A-C summarize the functions of HCA on the proliferation of specific commensal and pathogenic bacteria. […] Furthermore, the function of HCA on P. gingivalis attachment, a key parameter of adhesion and biofilm formation by periodontopathogenic bacteria, was investigated. […] Attachment measurements of P. gingivalis were performed based on our published studies (see detail in Shu et al, Journal of Periodontology, 2022). […] To test the biocompatibility and anti-inflammatory properties of HCA, human monocyte-derived macrophages (MDM) and gingival fibroblasts (HGF) were prepared as described in our previous studies. The cells were then treated with HCA from 0.1 to 50 μM. No toxicity was observed after treatment with different concentrations of HCA in either cell type using an MTT assay (FIGS. 19A and B, left column). The anti-inflammatory function of HCA on MDM and HGF after exposure to P. gingivalis lipopolysaccharide (PG-LPS) was investigated. […] HCA mitigates inflammation and affects the composition of microbiomes in vivo. Recent studies investigated whether HCA modulates periodontal inflammation using a mouse model. To induce periodontal inflammation, a total of 1 μl Pg-LPS at 10 μg/μl was directly injected twice a week into the interdental region between maxillary molars of C57BL/6J mice using a Hamilton1700 series syringe according to our previously published studies. 100 μl of HCA at 0.5 μM was administrated I.P. three time a week. […] It was also tested whether HCA affects the composition of the microbiome in vivo. For this purpose, high fat diet-induced obese (DIO) mice (The Jackson Laboratory) received I.P, administration of 100 μl of HCA at 0.2 and 0.5 μM three times a week for 3 weeks. […]

[3] = L-Norleucine at 1 and 5 μM, Pg-LPS at 100 ng/ml

Row | Structure (SMILES) | IL-6 and IL-8 in macrophages (Mouse macrophages; L-Norleucine) | transcripts of IL-1β, 6, and 8 (Mouse macrophages; [3]) | transcripts of IL-1β, 6, and 8 [1, 3] | anti-inflammatory miRs (miR-200c, 146a, and 21) (HGF) | anti-inflammatory miRs (miR-200c, 146a, and 21) (Human MDM) | proinflammatory cytokines (transcripts of IL-1β, 6 and 8) [1] | proinflammatory cytokines (IL-6 transcript and IL-6 protein in supernatants) [2]
1 | CCCC[C@H](N)C(=O)O [L-Norleucine] | effectively downregulated | effectively downregulated | effectively downregulated | – | – | – | –
2 | O=C(O)CC(O)C(=O)O (stereo not drawn) [MA, malic acid] | – | – | – | upregulate | upregulate | modulate | modulate
3 | NC(=O)c1ncn([C@@H]2O[C@H](CO)[C@@H](O)[C@H]2O)c1N [AICAR, acadesine] | – | – | – | upregulate | upregulate | modulate | modulate
4 | O=C(O)C(O)Cc1ccc(O)cc1 (stereo not drawn) [HPLA, 4-hydroxyphenyllactic acid] | – | – | – | upregulate | upregulate | modulate | modulate

— patent publication US20230277483A1, “COMPOSITIONS AND METHODS TO TREAT INFLAMMATION” (University of Iowa Research Foundation, priority 2022, published 2023)
